In one series the test system is mouse. Nature of the series: mouse i.v. LD50 (acute toxicity). The series is classed as in vivo. To be noted: 0.5M solution, confidence limit of 14.3-18.4 mmol/kg.
Series [1] is described as follows: relaxivity rates (Bruker NMR MiniSpec, 20 MHz, 40° C.). The series is classed as physicochemical.
Where [2] appears, read: sterile water for injection (SWFI).

`O=C([O-])CN(CCN(CC(=O)[O-])CC(=O)NCC1CCCO1)CCN(CC(=O)[O-])CC(=O)NCC1CCCO1.[Gd+3]` (centres unmarked) [Example 2] gave an LD50 value in the series with mouse of 16.2 mmol/kg. Also, in series [1] (4% human serum albumin (HSA)), the “relaxivity rate T1” value stood at 4.8 mmol⁻¹ s⁻¹ and the “relaxivity rate T2” value was found to be 4.8 mmol⁻¹ s⁻¹. In addition, in series [1] (setting [2]), the “relaxivity rate T1” value was 4.4 mmol⁻¹ s⁻¹ and the “relaxivity rate T2” value was found to be 5.6 mmol⁻¹ s⁻¹.

Values taken from US5077037A, “Novel compositions for magnetic resonance imaging” (Mallinckrodt Medical, Inc., priority 1990, dated 1991).
